Legend:
pseudovirus HIV-1 HXB2 = test: microbe, parasite or virus in culture; assay type: cell-based
in vitro = conditions: human
[1] = Human immunodeficiency virus 1, HXB2, TZM-bl, anti-HIV-1 activity, single-cycle assay, TZM-bl cells, pseudovirus HIV-1 HXB2, read-out: IC50
[2] = anti-HIV-1 activity, single-cycle assay, TZM-bl cells, pseudovirus HIV-1 HXB2, read-out: IC50
[3] = CC50, cytotoxicity, TZM-bl cells, MTS, 3 days

| Structure (SMILES) | IC50 (pseudovirus HIV-1 HXB2; [1]) [µM] | CC50 at 3 days (in vitro; CC50) [µM] | IC50 (pseudovirus HIV-1 HXB2; TZM-bl) [µM] | IC50 (pseudovirus HIV-1 HXB2; [2]) [µM] | CC50 at 3 days (in vitro; [3]) [µM] |
| --- | --- | --- | --- | --- | --- |
| Cc1cc(-c2ccc(C(F)(F)F)cn2)[nH]c1C(=O)NC(C)(CN)c1nc(CO)cs1 (racemic) [Compound 31, N-(1-Amino-2-(4-(hydroxymethyl)thiazol-2-yl)propan-2-yl)-3-methyl-5-(5-(trifluoromethyl)-pyridin-2-yl)-1H-pyrrole-2-carboxamide] | 2.6 ± 0.4 | > 68.3 |  |  |  |
| CC(CN)(NC(=O)c1ccc(-c2ccc(C(F)(F)F)cn2)[nH]1)c1nc(CO)cs1 (racemic) [Compound 32, N-(1-Amino-2-(4-(hydroxymethyl)thiazol-2-yl)propan-2-yl)-5-(5-(trifluoromethyl)pyridin-2-yl)-1H-pyrrole-2-carboxamide] | 5.1 ± 0.4 | > 70.5 |  |  |  |
| NCC(NC(=O)c1ccc(-c2ccc(C(F)(F)F)c(F)c2)[nH]1)c1ncc(CO)s1 (centres unmarked) [Comparator A, reference compound] |  | 21.9 | 0.089 |  |  |
| NCC(NC(=O)c1ccc(-c2ccc(C(F)(F)F)cc2)[nH]1)c1ncc(CO)s1 (centres unmarked) [Comparator B, reference compound] |  | 34 |  |  |  |
| NCC(NC(=O)c1ccc(-c2ccc(Cl)cn2)[nH]1)c1ncc(CO)s1 (centres unmarked) [Compound 2, N-(2-Amino-1-(5-(hydroxymethyl)thiazol-2-yl)ethyl)-5-(5-chloropyridin-2-yl)-1H-pyrrole-2-carboxamide] |  | 142 ± 1.7 |  | 2.7 ± 0.7 |  |
| Cc1cc(-c2ccc(Cl)cn2)[nH]c1C(=O)NC(CN)c1ncc(CO)s1 (centres unmarked) [Compound 3, N-(2-Amino-1-(5-(hydroxymethyl)thiazol-2-yl)ethyl)-5-(5-chloropyridin-2-yl)-3-methyl-1H-pyrrole-2-carboxamide] | 1.2 ± 0.1 | 98.3 ± 4 |  |  |  |
| NCC(NC(=O)c1ccc(-c2ccc(C(F)(F)F)cn2)[nH]1)c1ncc(CO)s1 (centres unmarked) [Compound 5, N-(2-Amino-1-(5-(hydroxymethyl)thiazol-2-yl)ethyl)-5-(5-(trifluoromethyl)pyridin-2-yl)-1H-pyrrole-2-carboxamide] | < 1 | > 122 |  | 0.96 |  |
| Cc1cc(-c2ccc(C(F)(F)F)cn2)[nH]c1C(=O)NC(CN)c1ncc(CO)s1 (centres unmarked) [Compound 7, N-(2-amino-1-(5-(hydroxymethyl)thiazol-2-yl)ethyl)-3-methyl-5-(5-(trifluoromethyl)pyridin-2-yl)-1H-pyrrole-2-carboxamide] | < 1 | 92.8 ± 2.4 |  |  |  |
| Cc1cc(-c2ccc(C(F)(F)F)cn2)[nH]c1C(=O)NC(c1ncc(CO)s1)C(C)(C)N (centres unmarked) [Compound 11, N-(2-Amino-1-(5-(hydroxymethyl)thiazol-2-yl)-2-methylpropyl)-3-methyl-5-(5-(trifluoro-methyl)pyridin-2-yl)-1H-pyrrole-2-carboxamide] |  | 35.3 ± 2 |  | 0.6 ± 0.2 | < 50 |
| NCC(NC(=O)c1ccc(-c2ccc(C(F)(F)F)cn2)[nH]1)c1ncc(C(O)CO)s1 (centres unmarked) [Compound 13, N-(2-Amino-1-(5-(1,2-dihydroxyethyl)thiazol-2-yl)ethyl)-5-(5-(trifluoromethyl)pyridin-2-yl)-1H-pyrrole-2-carboxamide] |  | > 113 |  | 2.1 ± 0.3 | > 100 |
| NCC(NC(=O)c1ccc(-c2ccc(Cl)cn2)[nH]1)c1nc(CO)cs1 (centres unmarked) [Compound 15, N-(2-Amino-1-(4-(hydroxymethyl)thiazol-2-yl)ethyl)-5-(5-chloropyridin-2-yl)-1H-pyrrole-2-carboxamide] |  | > 132 |  | 5 ± 0.5 | > 100 |
| NCC(NC(=O)c1ccc(-c2ccc(F)cn2)[nH]1)c1nc(CO)cs1 (centres unmarked) [Compound 17, N-(2-Amino-1-(4-(hydroxymethyl)thiazol-2-yl)ethyl)-5-(5-fluoropyridin-2-yl)-1H-pyrrole-2-carboxamide] | > 10 | > 138 |  | > 11 | > 100 |
| Cc1ccc(-c2ccc(C(=O)NC(CN)c3nc(CO)cs3)[nH]2)nc1 (centres unmarked) [Compound 19, N-(2-Amino-1-(4-(hydroxymethyl)thiazol-2-yl)ethyl)-5-(5-methylpyridin-2-yl)-1H-pyrrole-2-carboxamide] |  | > 140 |  | 9.6 ± 1.2 | > 100 |
| NCC(NC(=O)c1ccc(-c2ccc(C(F)(F)F)cn2)[nH]1)c1nc(CO)cs1 (centres unmarked) [Compound 21, N-(2-Amino-1-(4-(hydroxymethyl)thiazol-2-yl)ethyl)-5-(5-(trifluoromethyl)pyridin-2-yl)-1H-pyrrole-2-carboxamide] |  | 96 ± 6 |  | 0.5 |  |
| CC(C)(N)C(NC(=O)c1ccc(-c2ccc(C(F)(F)F)cn2)[nH]1)c1nc(CO)cs1 (centres unmarked) [Compound 23, N-(2-Amino-1-(4-(hydroxymethyl)thiazol-2-yl)-2-methylpropyl)-5-(5-(trifluoromethyl)pyridin-2-yl)-1H-pyrrole-2-carboxamide] |  | 61 ± 6.5 |  | 1.73 | < 50 |
| NCC(NC(=O)c1ccc(-c2ccc(C(F)(F)F)cn2)[nH]1)c1nc(CCO)cs1 (centres unmarked) [Compound 25, N-(2-Amino-1-(4-(2-hydroxyethyl)thiazol-2-yl)ethyl)-5-(5-(trifluoromethyl)pyridin-2-yl)-1H-pyrrole-2-carboxamide] |  | 100 ± 7 |  | 1.7 |  |
| NCC(NC(=O)c1ccc(-c2ccc(C(F)(F)F)cn2)[nH]1)c1nc(C(O)CO)cs1 (centres unmarked) [Compound 29, N-(2-Amino-1-(4-(1,2-dihydroxyethyl)thiazol-2-yl)ethyl)-5-(5-(trifluoromethyl)pyridin-2-yl)-1H-pyrrole-2-carboxamide] | 5.2 ± 0.9 | > 113 |  |  | > 100 |
| NCC(NC(=O)c1ccc(-c2ccc(C(F)(F)F)cn2)[nH]1)c1nc(CO)c(CO)s1 (centres unmarked) [Compound 35, N-(2-Amino-1-(4,5-bis(hydroxymethyl)thiazol-2-yl)ethyl)-5-(5-(trifluoromethyl)pyridin-2-yl)-1H-pyrrole-2-carboxamide] |  | > 113 |  | 1.8 |  |
| NCC(NC(=O)c1ccc(-c2ccc(C(F)(F)F)cn2)[nH]1)c1nccs1 (centres unmarked) [Compound 37, N-(2-Amino-1-(thiazol-2-yl)ethyl)-5-(5-(trifluoromethyl)pyridin-2-yl)-1H-pyrrole-2-carboxamide] | 2 ± 0.2 | 89.3 ± 1 |  |  |  |
| NCC(NC(=O)c1ccc(-c2ccc(Cl)nc2)[nH]1)c1nc(CO)cs1 (centres unmarked) [Compound 39, N-(2-Amino-1-(4-(hydroxymethyl)thiazol-2-yl)ethyl)-5-(6-chloropyridin-3-yl)-1H-pyrrole-2-carboxamide] | > 10 | > 132 |  | > 11 | > 100 |
| NCC(NC(=O)c1ccc(-c2ccc(C(F)(F)F)nc2)[nH]1)c1nc(CO)cs1 (centres unmarked) [Compound 41, N-(2-Amino-1-(4-(hydroxymethyl)thiazol-2-yl)ethyl)-5-(6-(trifluoromethyl)pyridin-3-yl)-1H-pyrrole-2-carboxamide] | > 10 | > 122 |  | 12.7 ± 2.8 | > 100 |
| NCC(NC(=O)c1ccc(-c2ccc(C(F)(F)F)nn2)[nH]1)c1nc(CO)cs1 (centres unmarked) [Compound 43, N-(2-Amino-1-(4-(hydroxymethyl)thiazol-2-yl)ethyl)-5-(6-(trifluoromethyl)pyridazin-3-yl)-1H-pyrrole-2-carboxamide] | > 10 | > 73 |  | > 12 |  |
| NCC(NC(=O)c1ccc(-c2ncc(Cl)cn2)[nH]1)c1nc(CO)cs1 (centres unmarked) [Compound 45, N-(2-Amino-1-(4-(hydroxymethyl)thiazol-2-yl)ethyl)-5-(5-chloropyrimidin-2-yl)-1H-pyrrole-2-carboxamide] | > 10 | > 66 |  | > 15.8 |  |
| COc1cc(-c2ccc(C(=O)NC(CN)c3nc(CO)cs3)[nH]2)ccn1 (centres unmarked) [Compound 47, N-(2-Amino-1-(4-(hydroxymethyl)thiazol-2-yl)ethyl)-5-(2-methoxypyridin-4-yl)-1H-pyrrole-2-carboxamide] | > 10 | > 133 |  | > 11 |  |
| NCC(NC(=O)c1ccc(-c2ccc(C(F)(F)F)cn2)[nH]1)c1cnc(CO)s1 (centres unmarked) [Compound 57, N-(2-Amino-1-(2-(hydroxymethyl)thiazol-5-yl)ethyl)-5-(5-(trifluoromethyl)pyridin-2-yl)-1H-pyrrole-2-carboxamide] | 2.1 ± 0.4 | > 122 |  |  |  |
| NCC(NC(=O)c1ccc(-c2ccc(Cl)cn2)[nH]1)c1cnc(CO)s1 (centres unmarked) [Compound 59, N-(2-Amino-1-(2-(hydroxymethyl)thiazol-5-yl)ethyl)-5-(5-chloropyridin-2-yl)-1H-pyrrole-2-carboxamide] |  | > 106 |  | ~26 |  |
| Cc1cc(-c2ccc(C(F)(F)F)cn2)[nH]c1C(=O)NC(CN)c1cnc(CO)s1 (centres unmarked) [Compound 61, N-(2-Amino-1-(2-(hydroxymethyl)thiazol-5-yl)ethyl)-3-methyl-5-(5-(trifluoromethyl)pyridin-2-yl)-1H-pyrrole-2-carboxamide] | 2.3 ± 1 | 65 ± 4.9 |  |  |  |
| Cc1cc(-c2ccc(C(F)(F)F)cn2)[nH]c1C(=O)NC(CN)c1csc(CO)n1 (centres unmarked) [Compound 63, N-(2-Amino-1-(2-(hydroxymethyl)thiazol-4-yl)ethyl)-3-methyl-5-(5-(trifluoromethyl)pyridin-2-yl)-1H-pyrrole-2-carboxamide] | 1.4 ± 0.1 | 42.3 ± 0.2 |  |  |  |
| NCC(NC(=O)c1ccc(-c2ccc(C(F)(F)F)cn2)[nH]1)c1csc(CO)n1 (centres unmarked) [Compound 65, N-(2-Amino-1-(2-(hydroxymethyl)thiazol-4-yl)ethyl)-5-(5-(trifluoromethyl)pyridin-2-yl)-1H-pyrrole-2-carboxamide] | 1.6 ± 0.2 | 84.3 ± 1.4 |  |  |  |
| NCC(NC(=O)c1ccc(-c2ccc(Cl)cn2)[nH]1)c1csc(CO)n1 (centres unmarked) [Compound 67, N-(2-Amino-1-(2-(hydroxymethyl)thiazol-4-yl)ethyl)-5-(5-chloropyridin-2-yl)-1H-pyrrole-2-carboxamide] |  | > 106 |  |  |  |
